The assay has as its target BRD4 (Homo sapiens, UniProt O60885). Kind of assay: Time Resolved Fluorescence Resonance Energy Transfer (TR-FRET) binding assay, FRET BRD4. The note with it: one of the FRET assays described (BRD4 bromodomain construct not specified); read-out: FRET BRD4 IC50. (In general: TR-FRET usually uses a lanthanide donor and a delayed reading to cut background.)

By IC50 is commonly meant the concentration that inhibits the measured activity by half.

In the case of `Cc1noc(C)c1-c1cnc2c3cc(C4CCN(C(=O)CO)CC4)ccc3n([C@H](c3ccccc3)C3CCOCC3)c2c1` [Example 6, 1-{4-[3-(Dimethyl-1,2-oxazol-4-yl)-5-[(S)-oxan-4-yl(phenyl)methyl]-5H-pyrido[3,2-b]indol-8-yl]piperidin-1-yl}-2-hydroxyethan-1-one], the IC50 was below 5 nM. The result for `CC(=O)N1CCC(c2ccc3c(c2)c2ncc(-c4c(C)noc4C)cc2n3[C@H](c2ccccc2)C2CCOCC2)CC1` [Example 7, 1-{4-[3-(Dimethyl-1,2-oxazol-4-yl)-5-[(S)-oxan-4-yl(phenyl)methyl]-5H-pyrido[3,2-b]indol-8-yl]piperidin-1-yl}ethan-1-one] reads below 1 nM; that for `CC(=O)OCC(=O)N1CCC(c2ccc3c(c2)c2ncc(-c4c(C)nnn4C)cc2n3[C@H](c2ccccc2)C2CCOCC2)CC1` [Example 8, 2-{4-[3-(Dimethyl-1H-1,2,3-triazol-5-yl)-5-[(S)-oxan-4-yl(phenyl)methyl]-5H-pyrido[3,2-b]indol-8-yl]piperidin-1-yl}-2-oxoethyl acetate], below 5 nM; that for `Cc1nnn(C)c1-c1cnc2c3ccc(-c4nnn[nH]4)cc3n([C@H](c3ccccc3)C3CCOCC3)c2c1` [Example 11, 5-[3-(Dimethyl-1H-1,2,3-triazol-5-yl)-5-[(S)-oxan-4-yl(phenyl)methyl]-5H-pyrido[3,2-b]indol-7-yl]-1H-1,2,3,4-tetrazole], below 1 nM. As for `Cc1nnn(C)c1-c1cnc2c3ccc(N4CCCOC4=O)cc3n([C@H](c3ccccc3)C3CCOCC3)c2c1` [Example 12, 3-[3-(Dimethyl-1H-1,2,3-triazol-5-yl)-5-[(S)-oxan-4-yl(phenyl)methyl]-5H-pyrido[3,2-b]indol-7-yl]-1,3-oxazinan-2-one], the figure is below 5 nM. With `Cc1nnn(C)c1-c1cnc2c3cc(N4CCNCC4)ccc3n([C@H](c3ccccc3)C3CCOCC3)c2c1` [Example 13, 1-[3-(Dimethyl-1H-1,2,3-triazol-5-yl)-5-[(S)-oxan-4-yl(phenyl)methyl]-5H-pyrido[3,2-b]indol-8-yl]piperazine], the IC50 was below 5 nM. On to `CC(=O)OCC(=O)N1CCN(c2ccc3c(c2)c2ncc(-c4c(C)nnn4C)cc2n3[C@H](c2ccccc2)C2CCOCC2)CC1` [Example 14, 2-{4-[3-(Dimethyl-1H-1,2,3-triazol-5-yl)-5-[(S)-oxan-4-yl(phenyl)methyl]-5H-pyrido[3,2-b]indol-8-yl]piperazin-1-yl}-2-oxoethyl acetate], for which the IC50 is below 5 nM.

On to `Cc1nnn(C)c1-c1cnc2c3cc(N4CCN(C5COC5)CC4)ccc3n([C@H](c3ccccc3)C3CCOCC3)c2c1` [Example 15, 1-[3-(Dimethyl-1H-1,2,3-triazol-5-yl)-5-[(S)-oxan-4-yl(phenyl)methyl]-5H-pyrido[3,2-b]indol-8-yl]-4-(oxetan-3-yl)piperazine], for which the IC50 was below 5 nM.

Take `Cc1nnn(C)c1-c1cnc2c3ccc(-c4cnn(C(C)C)c4)cc3n([C@H](c3ccccc3)C3CCOCC3)c2c1` [Example 16, 1,4-Dimethyl-5-{5-[(S)-oxan-4-yl(phenyl)methyl]-7-[1-(propan-2-yl)-1H-pyrazol-4-yl]-5H-pyrido[3,2-b]indol-3-yl}-1H-1,2,3-triazole]: the 50% inhibitory concentration (IC50) was below 5 nM. Turning to `Cc1n[nH]c(C)c1-c1ccc2c3ncc(-c4c(C)nnn4C)cc3n([C@H](c3ccccc3)C3CCOCC3)c2c1` [Example 17, 5-[7-(3,5-Dimethyl-1H-pyrazol-4-yl)-5-[(S)-oxan-4-yl(phenyl)methyl]-5H-pyrido[3,2-b]indol-3-yl]-1,4-dimethyl-1H-1,2,3-triazole], the IC50 is below 1 nM. For `[2H]C([2H])([2H])c1nnn(C)c1-c1ccc2c3ncc(-c4c(C)nnn4C)cc3n([C@H](c3ccccc3)C3CCOCC3)c2c1` [Example 18, 5-[3-(Dimethyl-1H-1,2,3-triazol-5-yl)-5-[(S)-oxan-4-yl(phenyl)methyl]-5H-pyrido[3,2-b]indol-7-yl]-4-(^2H3)methyl-1-methyl-1H-1,2,3-triazole], the IC50 was below 1 nM. As to `Cc1nnn(C)c1-c1cnc2c3c(N4CCCS4(=O)=O)ccc(S(C)(=O)=O)c3n([C@H](c3ccccc3)C3CCOCC3)c2c1` [Example 19, 2-[3-(Dimethyl-1H-1,2,3-triazol-5-yl)-6-methanesulfonyl-5-[(S)-oxan-4-yl(phenyl)methyl]-5H-pyrido[3,2-b]indol-9-yl]-1λ^6,2-thiazolidine-1,1-dione], the IC50 was below 1 nM. As to `Cc1nnn(C)c1-c1cnc2c3c(N4CCCCS4(=O)=O)ccc(S(C)(=O)=O)c3n([C@H](c3ccccc3)C3CCOCC3)c2c1` [Example 20, 2-[3-(Dimethyl-1H-1,2,3-triazol-5-yl)-6-methanesulfonyl-5-[(S)-oxan-4-yl(phenyl)methyl]-5H-pyrido[3,2-b]indol-9-yl]-1λ^6,2-thiazinane-1,1-dione], the IC50 was below 1 nM. For `Cc1nnn(C)c1-c1cnc2c3c(N4CCNCC4)ccc(S(C)(=O)=O)c3n([C@H](c3ccccc3)C3CCOCC3)c2c1` [Example 21, 1-[3-(Dimethyl-1H-1,2,3-triazol-5-yl)-6-methanesulfonyl-5-[(S)-oxan-4-yl(phenyl)methyl]-5H-pyrido[3,2-b]indol-9-yl]piperazine], the IC50 was below 5 nM. With `Cc1nnn(C)c1-c1cnc2c3c(N4CCN(CC(N)=O)CC4)ccc(S(C)(=O)=O)c3n([C@H](c3ccccc3)C3CCOCC3)c2c1` [Example 22, 2-{4-[3-(Dimethyl-1H-1,2,3-triazol-5-yl)-6-methanesulfonyl-5-[(S)-oxan-4-yl(phenyl)methyl]-5H-pyrido[3,2-b]indol-9-yl]piperazin-1-yl}acetamide], the IC50 was below 5 nM.

As for `Cc1nnn(C)c1-c1cnc2c3c(N4CCN(C5COC5)CC4)ccc(S(C)(=O)=O)c3n([C@H](c3ccccc3)C3CCOCC3)c2c1` [Example 23, 1-[3-(Dimethyl-1H-1,2,3-triazol-5-yl)-6-methanesulfonyl-5-[(S)-oxan-4-yl(phenyl)methyl]-5H-pyrido[3,2-b]indol-9-yl]-4-(oxetan-3-yl)piperazine], the IC50 was below 5 nM. As for `[2H]C([2H])([2H])c1nnn(C)c1-c1cnc2c3c(N4CCS(=O)(=O)CC4)ccc(S(C)(=O)=O)c3n([C@H](c3ccccc3)C3CCOCC3)c2c1` [Example 24, 4-{6-Methanesulfonyl-3-[4-(^2H3)methyl-1-methyl-1H-1,2,3-triazol-5-yl]-5-[(S)-oxan-4-yl(phenyl)methyl]-5H-pyrido[3,2-b]indol-9-yl}-1λ^6-thiomorpholine-1,1-dione], the IC50 is below 5 nM. For the compound `Cc1nnn(C)c1-c1cnc2c3c(N4CCN(C(=O)OC(C)(C)C)CC4)ccc(S(C)(=O)=O)c3n([C@H](c3ccccc3)C3CCOCC3)c2c1` [Example 25, tert-Butyl 4-[3-(dimethyl-1H-1,2,3-triazol-5-yl)-6-methanesulfonyl-5-[(S)-oxan-4-yl(phenyl)methyl]-5H-pyrido[3,2-b]indol-9-yl]piperazine-1-carboxylate], the IC50 was below 5 nM.

For `[2H]C([2H])([2H])c1nnn(C)c1-c1cnc2c3c(N4CCCS4(=O)=O)ccc(S(C)(=O)=O)c3n([C@H](c3ccccc3)C3CCOCC3)c2c1` [Example 26, 2-{6-Methanesulfonyl-3-[4-(^2H3)methyl-1-methyl-1H-1,2,3-triazol-5-yl]-5-[(S)-oxan-4-yl(phenyl)methyl]-5H-pyrido[3,2-b]indol-9-yl}-1λ^6,2-thiazolidine-1,1-dione], the IC50 was below 1500 nM. On to `[2H]C([2H])([2H])c1nnn(C)c1-c1ccc2c3ncc(-c4c(C([2H])([2H])[2H])nnn4C)cc3n(C(c3ncccc3F)C3CCOCC3)c2c1` (centres unmarked) [Example 27, 2-({3,7-Bis[4-(^2H3)methyl-1-methyl-1H-1,2,3-triazol-5-yl]-5H-pyrido[3,2-b]indol-5-yl}(oxan-4-yl)methyl)-3-fluoropyridine], for which the IC50 was below 5 nM.

Consider `[2H]C([2H])([2H])c1nnn(C)c1-c1ccc2c3ncc(-c4c(C([2H])([2H])[2H])nnn4C)cc3n(C(c3ncccc3F)C3CCOCC3)c2c1` (centres unmarked) [Example 28, 2-({3,7-Bis[4-(^2H3)methyl-1-methyl-1H-1,2,3-triazol-5-yl]-5H-pyrido[3,2-b]indol-5-yl}(oxan-4-yl)methyl)-3-fluoropyridine], for which the half-maximal inhibitory concentration (IC50) was below 5 nM.

As to `[2H]C([2H])([2H])Oc1nnn(C)c1-c1ccc2c3ncc(-c4c(OC([2H])([2H])[2H])nnn4C)cc3n([C@H](c3ccccc3)C3CCOCC3)c2c1` [Example 29, 4-(^2H3)Methoxy-5-{7-[4-(^2H)methoxy-1-methyl-1H-1,2,3-triazol-5-yl]-5-[(S)-oxan-4-yl-(phenyl)methyl]-5H-pyrido[3,2-b]indol-3-yl}-1-methyl-1H-1,2,3-triazole], the IC50 was below 5 nM. Consider `[2H]C([2H])([2H])n1nnc(OC)c1-c1ccc2c3ncc(-c4c(OC)nnn4C([2H])([2H])[2H])cc3n([C@H](c3ccccc3)C3CCOCC3)c2c1` [Example 30, 4-Methoxy-5-{7-[4-methoxy-1-(^2H3)methyl-1H-1,2,3-triazol-5-yl]-5-[(S)-oxan-4-yl(phenyl)-methyl]-5H-pyrido[3,2-b]indol-3-yl}-1-(^2H3)methyl-1H-1,2,3-triazole], for which the IC50 was below 5 nM.

`[2H]C([2H])([2H])c1nnn(C)c1-c1ccc2c3ncc(-c4c(C([2H])([2H])[2H])nnn4C)cc3n([C@H](c3ccccc3)C3CCOCC3)c2c1` [Example 31, 4-(^2H3)Methyl-1-methyl-5-{7-[4-(^2H3)methyl-1-methyl-1H-1,2,3-triazol-5-yl]-5-[(S)-oxan-4-yl(phenyl)methyl]-5H-pyrido[3,2-b]indol-3-yl}-1H-1,2,3-triazole]: the half-inhibitory concentration (IC50) is below 1 nM. With `COc1nnn(C)c1-c1ccc2c3ncc(-c4c(OC)nnn4C)cc3n([C@H](c3ccccc3)C3CCOCC3)c2c1` [Example 32, 4-Methoxy-5-[7-(4-methoxy-1-methyl-1H-1,2,3-triazol-5-yl)-5-[(S)-oxan-4-yl(phenyl)methyl]-5H-pyrido[3,2-b]indol-3-yl]-1-methyl-1H-1,2,3-triazole], the IC50 was below 1 nM. Take `[2H]C([2H])([2H])c1nnn(C)c1-c1cnc2c3c(N4CCCS4(=O)=O)ccc(S(C)(=O)=O)c3n([C@H](c3ccc(F)cc3)C3CCOCC3)c2c1` [Example 33, 2-{5-[(S)-(4-Fluorophenyl)(oxan-4-yl)methyl]-6-methanesulfonyl-3-[4-(^2H3)methyl-1-methyl-1H-1,2,3-triazol-5-yl]-5H-pyrido[3,2-b]indol-9-yl}-1λ^6,2-thiazolidine-1,1-dione]: the IC50 was below 1 nM.

The values are drawn from patent US10174024B2, “5H-pyrido[3,2-B]indole compounds as anticancer agents” (BRISTOL-MYERS SQUIBB COMPANY, priority 2015, dated 2019).
